Measured values reported in ChEMBL document CHEMBL1671702, “Baseline genotypic and phenotypic susceptibilities of HIV-1 group O to enfuvirtide” (Antimicrob Agents Chemother, 2010).
Activity calls are given as the source filed them. The rule behind the calls is not given here.

Key:
[1] = system: Human immunodeficiency virus 2; experiment: Antiviral activity against Human immunodeficiency virus type 2 (ISOLATE ROD); assay type: functional, organism-based
[2] = system: Human immunodeficiency virus 1; experiment: Antiviral activity against HIV-1 group O expressing gp41 N42D, N43K mutant gene; assay type: functional
[3] = system: Human immunodeficiency virus 1; experiment: Antiviral activity against HIV-1 group O; conditions: Human immunodeficiency virus 1, group O
[4] = system: Human immunodeficiency virus 1; experiment: Antiviral activity against HIV-1 group O expressing gp41 E119Q mutant gene; assay type: functional
[5] = system: Human immunodeficiency virus type 1 (BRU ISOLATE); experiment: Antiviral activity against Human immunodeficiency virus type 1 (BRU ISOLATE); assay type: functional
[6] = system: Human immunodeficiency virus 1; experiment: Antiviral activity against HIV-1 group M; conditions: Human immunodeficiency virus 1, group M
[7] = system: Human immunodeficiency virus 1; experiment: Antiviral activity against HIV-1 group O expressing gp41 T27A mutant gene; assay type: functional

Which Activity [1] does the source give for enfuvirtide here?
The Activity was “inactive”.

And the IC50 [2]?
Its IC50 is 6.4 nM.

What about the IC50 [3] of the same substance?
Its IC50 is 4 nM.

And the IC50 [4]?
The IC50 was > 1000 nM.

What about the Activity [5] of the same substance?
Its Activity is “Active”.

And the IC50 [6]?
The IC50 was 6.4 nM.

What about the IC50 [7] of the same substance?
The IC50 was > 1000 nM.
